According to ChEMBL document CHEMBL1671662, “In vitro activities of telavancin and six comparator agents against anaerobic bacterial isolates” (2009):
In brackets after ≈: the same amount, converted by molar mass.

Columns and labels:
[1] = test system: Streptococcus anginosus; assay: Antibacterial activity against Streptococcus anginosus by CLSI M11-A6 agar dilution method; format: functional
[2] = test system: Finegoldia magna; assay: Antibacterial activity against Finegoldia magna by CLSI M11-A6 agar dilution method; format: functional
[3] = test system: Coprobacillus cateniformis; assay: Antibacterial activity against Coprobacillus cateniformis by CLSI M11-A6 agar dilution method; format: functional
[4] = test system: Clostridium hathewayi; assay: Antibacterial activity against Clostridium hathewayi by CLSI M11-A6 agar dilution method; format: functional; conditions: Hungatella hathewayi
[5] = test system: Prevotella intermedia; assay: Antibacterial activity against Prevotella P intermedia by CLSI M11-A6 agar dilution method; format: functional
[6] = test system: Collinsella aerofaciens; assay: Antibacterial activity against Colinsella aerofaciens by CLSI M11-A6 agar dilution method; format: functional
[7] = test system: Coriobacterium; assay: Antibacterial activity against […] by CLSI M11-A6 agar dilution method; format: functional
[8] = test system: Bifidobacterium longum; assay: Antibacterial activity against Bifidobacterium longum by CLSI M11-A6 agar dilution method; format: functional
[9] = test system: Ruminococcus lactaris; assay: Antibacterial activity against Ruminococcus lactaris by CLSI M11-A6 agar dilution method; format: functional
[10] = test system: Bifidobacterium pseudolongum; assay: Antibacterial activity against Bifidobacterium pseudolongum by CLSI M11-A6 agar dilution method; format: functional
[11] = test system: Bacteroides thetaiotaomicron; assay: Antibacterial activity against Bacteroides thetaiotaomicron by CLSI M11-A6 agar dilution method; format: functional
[12] = test system: Ruminococcus torques; assay: Antibacterial activity against Ruminococcus torques by CLSI M11-A6 agar dilution method; format: functional; conditions: Mediterraneibacter torques
[13] = test system: Clostridium disporicum; assay: Antibacterial activity against Clostridium disporicum by CLSI M11-A6 agar dilution method; format: functional
[14] = test system: Clostridium bartlettii; assay: Antibacterial activity against Clostridium bartlettii by CLSI M11-A6 agar dilution method; format: functional; conditions: Intestinibacter bartlettii
[15] = test system: Prevotella bivia; assay: Antibacterial activity against Prevotella bivia by CLSI M11-A6 agar dilution method; format: functional
[16] = test system: Blautia luti; assay: Antibacterial activity against Ruminococcus luti by CLSI M11-A6 agar dilution method; format: functional
[17] = test system: Clostridium paraputrificum; assay: Antibacterial activity against Clostridium paraputrificum by CLSI M11-A6 agar dilution method; format: functional
[18] = test system: Prevotella corporis; assay: Antibacterial activity against Prevotella corporis by CLSI M11-A6 agar dilution method; format: functional
[19] = test system: Catenibacterium mitsuokai; assay: Antibacterial activity against Catenibacterium mitsuokai by CLSI M11-A6 agar dilution method; format: functional
[20] = test system: Streptococcus intermedius; assay: Antibacterial activity against Streptococcus intermedius by CLSI M11-A6 agar dilution method; format: functional
[21] = test system: Prevotella oris; assay: Antibacterial activity against Prevotella oris by CLSI M11-A6 agar dilution method; format: functional; conditions: Segatella oris
[22] = test system: Flavonifractor plautii; assay: Antibacterial activity against Clostridium orbiscindens by CLSI M11-A6 agar dilution method; format: functional
[23] = test system: Clostridium butyricum; assay: Antibacterial activity against Clostridium butyricum by CLSI M11-A6 agar dilution method; format: functional
[24] = test system: Clostridium sp.; assay: Antibacterial activity against Clostridium sp. by CLSI M11-A6 agar dilution method; format: functional
[25] = test system: Prevotella nigrescens; assay: Antibacterial activity against Prevotella nigrescens by CLSI M11-A6 agar dilution method; format: functional
[26] = test system: Odoribacter splanchnicus; assay: Antibacterial activity against Bacteroides splanchnicus by CLSI M11-A6 agar dilution method; format: functional
[27] = test system: Prevotella buccae; assay: Antibacterial activity against Prevotella buccae by CLSI M11-A6 agar dilution method; format: functional; conditions: Segatella buccae
[28] = test system: Fusobacterium varium; assay: Antibacterial activity against Fusobacterium varium by CLSI M11-A6 agar dilution method; format: functional
[29] = test system: Clostridium sporogenes; assay: Antibacterial activity against Clostridium sporogenes by CLSI M11-A6 agar dilution method; format: functional
[30] = test system: Parabacteroides merdae; assay: Antibacterial activity against Parabacteroides merdae by CLSI M11-A6 agar dilution method; format: functional
[31] = test system: Peptoniphilus asaccharolyticus; assay: Antibacterial activity against Peptoniphilus asaccharolyticus by CLSI M11-A6 agar dilution method; format: functional
[32] = test system: Clostridium spiroforme; assay: Antibacterial activity against Clostridium spiroforme by CLSI M11-A6 agar dilution method; format: functional; conditions: Thomasclavelia spiroformis
[33] = test system: Clostridioides difficile; assay: Antibacterial activity against Clostridium difficile by CLSI M11-A6 agar dilution method; format: functional
[34] = test system: Clostridium subterminale; assay: Antibacterial activity against Clostridium subterminale by CLSI M11-A6 agar dilution method; format: functional
[35] = test system: Bifidobacterium adolescentis; assay: Antibacterial activity against Bifidobacterium adolescentis by CLSI M11-A6 agar dilution method; format: functional
[36] = test system: Ruminococcus obeum; assay: Antibacterial activity against Ruminococcus obeum by CLSI M11-A6 agar dilution method; format: functional; conditions: Blautia obeum
[37] = test system: Paeniclostridium sordellii; assay: Antibacterial activity against Clostridium sordellii by CLSI M11-A6 agar dilution method; format: functional; conditions: Paraclostridium sordellii
[38] = test system: Clostridium perfringens; assay: Antibacterial activity against Clostridium perfringens by CLSI M11-A6 agar dilution method; format: functional
[39] = test system: Anaerococcus tetradius; assay: Antibacterial activity against Anaerococcus tetradius by CLSI M11-A6 agar dilution method; format: functional
[40] = test system: Clostridium sporosphaeroides; assay: Antibacterial activity against Clostridium sporosphaeroides by CLSI M11-A6 agar dilution method; format: functional; conditions: Faecalispora sporosphaeroides
[41] = Antibacterial activity against Bifidobacterium infantis by CLSI M11-A6 agar dilution method; format: functional, Bifidobacterium longum subsp. infantis; conditions: Bifidobacterium longum
[42] = test system: Ruminococcus albus; assay: Antibacterial activity against Ruminococcus albus by CLSI M11-A6 agar dilution method; format: functional; conditions: Hominimerdicola alba
[43] = test system: Clostridium celerecrescens; assay: Antibacterial activity against Clostridium celerecrescens by CLSI M11-A6 agar dilution method; format: functional; conditions: Lacrimispora celerecrescens

Question: What does the source list for CCCCCCCCCCNCCN[C@@]1(C)C[C@H](O[C@H]2[C@H](Oc3c4cc5cc3Oc3ccc(cc3Cl)[C@@H](O)[C@@H](NC(=O)[C@@H](CC(C)C)NC)C(=O)N[C@@H](CC(N)=O)C(=O)N[C@H]5C(=O)N[C@H]3C(=O)N[C@H](C(=O)N[C@H](C(=O)O)c5cc(O)c(CNCP(=O)(O)O)c(O)c5-c5cc3ccc5O)[C@H](O)c3ccc(c(Cl)c3)O4)O[C@H](CO)[C@@H](O)[C@@H]2O)O[C@@H](C)[C@H]1O [TELAVANCIN]?
Answer: MIC50 [1]: ≤ 0.12 µg/mL; MIC90 [1]: ≤ 0.12 µg/mL; MIC50 [2]: ≤ 0.12 µg/mL; MIC90 [2]: 0.25 µg/mL (≈ 0.142 µM); MIC50 [3]: ≤ 0.12 µg/mL; MIC90 [3]: 0.5 µg/mL (≈ 0.285 µM); MIC50 [4]: 0.5 µg/mL (≈ 0.285 µM); MIC90 [4]: 1 µg/mL (≈ 0.57 µM); MIC50 [5]: 8 µg/mL (≈ 4.56 µM); MIC90 [5]: 64 µg/mL (≈ 36.5 µM); MIC50 [6]: ≤ 0.12 µg/mL; MIC90 [6]: 0.5 µg/mL (≈ 0.285 µM); MIC50 [7]: ≤ 0.12 µg/mL; MIC90 [7]: 0.5 µg/mL (≈ 0.285 µM); MIC50 [8]: ≤ 0.12 µg/mL; MIC90 [8]: 0.5 µg/mL (≈ 0.285 µM); MIC50 [9]: ≤ 0.12 µg/mL; MIC90 [9]: ≤ 0.12 µg/mL; MIC50 [10]: ≤ 0.12 µg/mL; MIC90 [10]: 0.5 µg/mL (≈ 0.285 µM); MIC50 [11]: > 64 µg/mL; MIC90 [11]: > 64 µg/mL; MIC50 [12]: ≤ 0.12 µg/mL; MIC90 [12]: ≤ 0.12 µg/mL; MIC50 [13]: ≤ 0.12 µg/mL; MIC90 [13]: 0.25 µg/mL (≈ 0.142 µM); MIC50 [14]: ≤ 0.12 µg/mL; MIC90 [14]: 0.25 µg/mL (≈ 0.142 µM); MIC50 [15]: 8 µg/mL (≈ 4.56 µM); MIC90 [15]: 64 µg/mL (≈ 36.5 µM); MIC50 [16]: ≤ 0.12 µg/mL; MIC90 [16]: ≤ 0.12 µg/mL; MIC50 [17]: ≤ 0.12 µg/mL; MIC90 [17]: 0.25 µg/mL (≈ 0.142 µM); MIC50 [18]: 8 µg/mL (≈ 4.56 µM); MIC90 [18]: 64 µg/mL (≈ 36.5 µM); MIC50 [19]: ≤ 0.12 µg/mL; MIC90 [19]: 0.5 µg/mL (≈ 0.285 µM); MIC50 [20]: ≤ 0.12 µg/mL; MIC90 [20]: ≤ 0.12 µg/mL; MIC50 [21]: 8 µg/mL (≈ 4.56 µM); MIC90 [21]: 64 µg/mL (≈ 36.5 µM); MIC50 [22]: ≤ 0.12 µg/mL; MIC90 [22]: 0.25 µg/mL (≈ 0.142 µM); MIC50 [23]: ≤ 0.12 µg/mL; MIC90 [23]: 0.25 µg/mL (≈ 0.142 µM); MIC50 [24]: ≤ 0.12 µg/mL; MIC90 [24]: 0.25 µg/mL (≈ 0.142 µM); MIC50 [25]: 8 µg/mL (≈ 4.56 µM); MIC90 [25]: 64 µg/mL (≈ 36.5 µM); MIC50 [26]: > 64 µg/mL; MIC90 [26]: > 64 µg/mL; MIC50 [27]: 8 µg/mL (≈ 4.56 µM); MIC90 [27]: 64 µg/mL (≈ 36.5 µM); MIC50 [28]: > 64 µg/mL; MIC90 [28]: > 64 µg/mL; MIC50 [29]: ≤ 0.12 µg/mL; MIC90 [29]: 0.25 µg/mL (≈ 0.142 µM); MIC [30]: > 64 µg/mL; MIC50 [30]: > 64 µg/mL; MIC90 [30]: > 64 µg/mL; MIC50 [31]: ≤ 0.12 µg/mL; MIC90 [31]: 0.25 µg/mL (≈ 0.142 µM); MIC50 [32]: ≤ 0.12 µg/mL; MIC90 [32]: 0.25 µg/mL (≈ 0.142 µM); MIC50 [33]: 0.25 µg/mL (≈ 0.142 µM); MIC90 [33]: 0.25 µg/mL (≈ 0.142 µM); MIC [34]: ≤ 0.12 µg/mL; MIC50 [34]: ≤ 0.12 µg/mL; MIC90 [34]: ≤ 0.12 µg/mL; MIC50 [35]: ≤ 0.12 µg/mL; MIC90 [35]: 0.5 µg/mL (≈ 0.285 µM); MIC [36]: ≤ 0.12 µg/mL; MIC50 [36]: ≤ 0.12 µg/mL; MIC90 [36]: ≤ 0.12 µg/mL; MIC50 [37]: ≤ 0.12 µg/mL; MIC90 [37]: 0.25 µg/mL (≈ 0.142 µM); MIC50 [38]: ≤ 0.12 µg/mL; MIC90 [38]: 0.25 µg/mL (≈ 0.142 µM); MIC50 [39]: ≤ 0.12 µg/mL; MIC90 [39]: 0.25 µg/mL (≈ 0.142 µM); MIC50 [40]: ≤ 0.12 µg/mL; MIC90 [40]: 0.25 µg/mL (≈ 0.142 µM); MIC50 [41]: ≤ 0.12 µg/mL; MIC90 [41]: 0.5 µg/mL (≈ 0.285 µM); MIC50 [42]: ≤ 0.12 µg/mL; MIC90 [42]: ≤ 0.12 µg/mL; MIC50 [43]: ≤ 0.12 µg/mL; MIC90 [43]: 0.25 µg/mL (≈ 0.142 µM)
